Source: ChEMBL document CHEMBL1132145, “Effects of C-4 stereochemistry and C-4' hydroxylation on the iron clearing efficiency and toxicity of desferrithiocin analogues” (1999)

Assays:
Format in all cases: functional
Monkey [1] = assay: The compound was tested in vivo for the iron clearing activity against non -iron-overloaded Cebus apella monkey at a concentration of 300 uM/Kg with distilled water
Rattus norvegicus [2] = assay: The compound was tested in vivo for the iron clearing activity against non-iron-overloaded-bile duct cannulated rat, at a concentration of 150 uM/Kg
Monkey [3] = assay: The compound was tested in vivo for the iron clearing activity against non -iron-overloaded Cebus apella monkey at a concentration of 300 uM/Kg
Monkey [4] = assay: The compound was tested in vivo for the iron clearing activity against non -iron-overloaded Cebus apella monkey at a concentration of 150 uM/Kg, with distilled water
Monkey [5] = assay: The compound was tested in vivo for the iron clearing activity against non -iron-overloaded Cebus apella monkey at a concentration of 150 uM/Kg
Monkey [6] = assay: The compound was tested in vivo for the iron clearing activity against non -iron-overloaded Cebus apella monkey at a concentration of 300 uM/Kg.
Monkey [7] = assay: The compound was tested in vivo for the iron clearing activity against non-iron-overloaded Cebus apella monkey, values in parentheses indicate the % breakdown of iron excreted in stool and urine, at a concentration of 75 uM/Kg.
Monkey [8] = assay: The compound was tested in vivo for the iron clearing activity against non-iron-overloaded Cebus apella monkey, values in parentheses indicate the % breakdown of iron excreted in stool and urine, at a concentration of 300 uM/Kg.
Monkey [9] = assay: The compound was tested in vivo for the iron clearing activity against non -iron-overloaded Cebus apella monkey at a concentration of 150 uM/Kg.
Rattus norvegicus [10] = assay: The compound was tested in vivo for the iron clearing activity against non-iron-overloaded-bile duct cannulated rat, at a concentration of 150 uM/Kg(po)
Monkey [11] = assay: The compound was tested in vivo for the iron clearing activity against non -iron-overloaded Cebus apella monkey at a concentration of 75 uM/Kg

Row | Structure (SMILES) | Efficiency (Rattus norvegicus [2]) | Efficiency (Monkey [5]) | Efficiency (Monkey [6]) | also measured
1 | O=C(O)[C@H]1CSC(c2ccc(O)cc2O)=N1 | 2.4% | 4.2% |  | Efficiency (Monkey [1]): 4.8%; Efficiency (Monkey [3]): 5.6%; Efficiency (Monkey [4]): 5.6%
2 | O=C(O)[C@H]1CSC(c2ncccc2O)=N1 | 2.4% | 4.8% | 8% | 
3 | O=C(O)[C@H]1CSC(c2ccccc2O)=N1 | 1.4% |  | 12.4% | 
4 | C[C@]1(C(=O)O)CSC(c2ccccc2O)=N1 | 2.7% |  | 13.1% | Efficiency (Monkey [7]): 21.5%
5 | O=C(O)[C@@H]1CSC(c2ncccc2O)=N1 | 3.9% | 0.5% |  | 
6 | O=C(O)[C@@H]1CSC(c2ccccc2O)=N1 | 4.2% |  |  | Efficiency (Monkey [8]): 8.2%
7 | O=C(O)[C@@H]1CSC(c2ccc(O)cc2O)=N1 |  |  |  | Efficiency (Monkey [9]): 1.7%; Efficiency (Rattus norvegicus [10]): <0.5%
8 | C[C@]1(C(=O)O)CSC(c2ccc(O)cc2O)=N1 [DEFERITRIN] | <0.5% |  |  | Efficiency (Monkey [9]): 13.4%; Efficiency (Monkey [11]): 17.7%
9 | C[C@]1(C(=O)O)CSC(c2ncccc2O)=N1 [DESFERRITHIOCIN] | 5.5% | 16.1% |  | 
